92 molecules from a melting point compilation (Tetko et al.; mined from patent text by program, amines drawn as free bases though some values may be those of a salt) can be followed below.

By melting point is commonly meant the temperature, or range, at which the solid turns liquid.

As to `Cc1noc(NS(=O)(=O)c2cccc3cccnc23)c1C`, the melting point lay within 176 to 178 °C. In turn, `O=C1CCCc2nc(N3CCNCC3)ncc2N1` returned a melting point of 175 to 178 °C. As to `Clc1ccc2c(C3=CCNCC3)c[nH]c2c1`, the melting point lay within 181 to 185 °C. The value for `CCOC(=O)N=C1NCC(Oc2ccc(C(Cc3cc4cc(C#N)ccc4s3)C(=O)OCC)cc2)CN1` (configuration not stated) was 179 to 182 °C; that for `O=C(Nc1ccc([N+](=O)[O-])cc1)N[C@H]1C[C@H](C(=O)O)Nc2cc(Cl)cc(Cl)c21` (relative stereo) was 185 to 186 °C; that for `CC(C)(C)Oc1ccc(C(=O)N[C@H]2CC[C@H](CCN3CCN(c4nccc5c4OCC5)CC3)CC2)cc1` was 168 °C.

As to `COc1ccc(C(O)CCCC(=O)Nc2ccccc2)cc1` (configuration not stated), the melting point lay in the range of 96 to 96.5 °C.

In turn, `CC(C)(C)c1ccc(C(O)CCCN2CCC(OC(c3ccccc3)c3ccccc3)CC2)cc1` (configuration not stated) showed a melting point of 129 to 131 °C. `O=C1C=CC(OC2CCCC2)N1S(=O)(=O)c1ccccc1` (configuration not stated): the melting point is 123 to 124 °C. The molecule `CNC(=S)NN=C(CCCNC(=O)c1ccccc1)c1ccccc1` returned a melting point of 114 to 118 °C. The molecule `C=CCOC(=O)c1c(C)c(OC)cc(O[Si](C)(C)C(C)(C)C)c1C=O` returned a melting point of 94 to 95 °C. In turn, `CC(=O)SCC(Cc1ccc(-c2ccccc2)cc1)C(=O)N[C@@H](CSCc1ccc(C)cc1)C(=O)O` (some centres not stated) registered a melting point of 131 to 135 °C. `CCOC(=O)/C=C/c1ccc(Cn2ccnc2)c(Cl)c1` registered a melting point of 112 to 114 °C. As to `Clc1ccc(-c2cn([C@H]3CN4CCC3CC4)nn2)cc1`, the melting point is 144 °C. In turn, `CCCC/C=C\CCCCOc1cccc(C(N)=O)c1` registered a melting point of 98 to 100 °C. To `COC(=O)C(C)(C)c1ccc(C(=O)Nc2cn3cc(C)ccc3n2)cc1` belongs 228 to 230 °C.

On to `COc1ccc(CNc2nc(N3CCC[C@H]3CO)ncc2C(=O)O)cc1Cl`, for which the melting point fell in the range of 205 to 208 °C. `CCc1c(OC)nc(OC)nc1C(=O)c1cc(C)cc(C=CC#N)c1` displayed a melting point of 165 to 166 °C. To `S=c1c(Br)coc2ccccc12` belongs 41 °C. For the molecule `O=c1cc(-c2cccc(Cl)c2)c2cc(C(c3ccc(Cl)cc3)n3ccnc3)cc3c2n1CCC3` (configuration not stated), the melting point is 195 °C.

In turn, `Cc1cc(O)c(S(=O)(=O)CCC(C)C)c(=O)o1` displayed a melting point of 101 to 102 °C.

`CCc1cc(C)c2c(C3CCCCC3)cc(=O)n(CC)c2n1` returned a melting point of 79 to 80 °C.

With `CS(=O)(=O)c1ncc(-c2ccccc2)c(C(F)(F)F)n1`, the melting point was 110 to 112 °C. To `NC(=O)C(=O)NCCc1ccc(OCc2ccccc2)c(OCc2ccccc2)c1` belongs 187 °C. Turning to `CCCCC(=O)N(CCCCn1ccnc1)C1=Nc2cccc3cccc1c23`, the melting point lay in the range of 110 to 112 °C.

Turning to `COC(=O)CCN1CCC(NC(=O)OC(C)(C)C)CC1`, the melting point is 91 to 93 °C. `Cc1c(NC(=O)c2ccc(-c3ccc(Cl)s3)cc2F)ccc2cc(CN3CCCC3)cnc12`: the melting point fell in the range of 160 to 162 °C. The value for `CC1CCC(CNc2cc3oc(=O)[nH]c3cc2F)C(C)O1` (configuration not stated) was 123 to 139 °C. The value for `COc1ccc(N2CCOCC2)c2sc(NC(=O)C[C@H]3CC[C@@H](O)CC3)nc12` was 212 to 216 °C; that for `CC(=O)CC1CN=C(c2cc3cccc(N(C)S(=O)(=O)c4cccs4)c3[nH]2)S1` (configuration not stated) was 123 to 124 °C.

`OC(c1ccccc1)(c1ccc(F)cc1)C1CCNCC1` (configuration not stated) registered a melting point of 144 to 146 °C.

Take `COc1cccc(C#N)c1C`: the melting point fell in the range of 47 to 48 °C.

`COCC1CN(c2ccc(C3CCC4(CC3)OCCO4)cn2)C(=O)O1` (racemic) came in with a melting point of 117 to 121 °C.

`CC1=CC(O)(c2nc3ccccc3s2)C=C(C)C1=O`: the melting point was 132 °C. In turn, `OCCc1nccn1CCCc1ccc(O)cc1` came in with a melting point of 116 to 117 °C. The molecule `C#CCOc1cc(-n2nnn(CCC)c2=O)c(Cl)cc1Cl` displayed a melting point of 70 to 72 °C. Molecule `O=c1cc(Sc2ccccc2)cc[nH]1` displayed a melting point of 202 °C.

`COc1ccc2[nH]c(S(=O)Cc3cc(N4CCCCC4)ncn3)nc2c1` (configuration not stated) returned a melting point of 98 to 101 °C. To `C(=C\c1nc2ccccc2n1-c1ccncc1)/c1ccoc1` belongs 172 °C; to `CC(C)CCCC(C)C1CCC2C3CC=C4CC(OCCC#CCCOC(c5ccccc5)(c5ccccc5)c5ccccc5)CCC4(C)C3CCC12C` (configuration not stated), 112 to 113 °C. The molecule `CCCCc1nc2c(N)nc(C)c(C)c2n1CC(C)(C)NS(C)(=O)=O` displayed a melting point of 90 to 92 °C. `Cc1noc(NS(=O)(=O)c2ccccc2-c2ccc(CC(C)C)cc2CNC=O)c1C` yielded a melting point of 78 to 83 °C. On to `Cc1ccc(N=C2SCS2)cc1`, for which the melting point was in the range of 54.5 to 55 °C. `CC1Cc2cc3c(cc2C(c2ccc([N+](=O)[O-])cc2)=NN1C(=O)CCl)OCO3` (configuration not stated) yielded a melting point of 158 to 160 °C. The value for `CS(=O)(=O)c1nnc(-c2ccco2)s1` was 120 °C; that for `COC(=O)c1ccc(Cl)cc1NC(=O)CSc1ccc([N+](=O)[O-])cc1` was 134 to 137 °C; that for `Nc1ccc2c(-c3ccccc3)c([N+](=O)[O-])oc2c1` was 212 to 214 °C.

The molecule `O=C(O)Cc1ccc(NCCNC(=O)C2Cc3ccccc3N2S(=O)(=O)c2ccc(-c3cc(C(F)(F)F)ccc3Cl)cc2)cc1` (configuration not stated) had a melting point of 110 to 118 °C.

Consider `Cc1cc(OCc2ccccc2F)c2cccc(O)c2n1`, for which the melting point is 124 to 125 °C.

`Cc1cccc(-c2nc3ccc(OCCCN(C)C)cc3n2Cc2ccccc2C(F)(F)F)c1` returned a melting point of 74 °C.

Take `Cc1nnc(-c2ccc3ncn(-c4cccc(C(F)(F)F)c4)c3c2)o1`: the melting point lay within 212 to 213 °C. Turning to `Cc1cc(C(C)(C)C)c(C)c(O)c1-c1c(C)cc(C(C)(C)C)c(C)c1O`, the melting point lay within 103 to 105 °C. Consider `CSc1nc(O)cc(=O)n1C`, for which the melting point was determined as 198 °C. `Cc1nc(C(=O)O)co1` yielded a melting point of over 250 °C. `Cc1c2c(c(C)n1CCCN(C)C)C(C)(C#N)CC2(C)C` (configuration not stated) came in with a melting point of 90.5 to 91 °C.

Consider `C#CC1(O)CCC2(C)C(CCC3C2CCC2(C)C(OC)CCC32)C1` (configuration not stated), for which the melting point lay within 62 to 65 °C. As to `CCn1cc(C(=O)O)c(=O)c2c(F)c(F)c(N3CCN(C)CC3)c(F)c21`, the melting point was 221 to 223 °C.

In turn, `O=C(O)c1c(Sc2ccccc2)c2ccccc2n1-c1ccc2c(c1)OCO2` showed a melting point of 182 to 183 °C. `COCC(NC(C)=O)C(=O)NCc1ccccc1` (configuration not stated) yielded a melting point of 142 to 143 °C.

In turn, `COc1ccccc1N1CCN(CCCO)CC1` returned a melting point of 88 to 89 °C. Molecule `CN(C)C(=O)C=CC(=O)N(C)C` showed a melting point of 130 to 131 °C.

`CN1C(=O)CCC2=C1CCc1ccc(F)cc12` registered a melting point of 122 °C. Regarding `Cc1ccc2cc(NC(=O)c3cccc(CSc4cnccn4)c3)ccc2n1`, the melting point lay in the range of 133 to 135 °C. Turning to `COC(=O)c1ccc(O)c(C(C)(C)C)c1`, the melting point lay within 144 to 145 °C. The molecule `Nc1nc(O)c2cc(CCc3ccc(C(=O)N[C@@H](CCC(=O)O)C(=O)O)cc3)cnc2n1` had a melting point of over 200 °C.

The molecule `COc1cn(-c2cccc(C(F)(F)F)c2)nc(-n2ccnc2-c2ccccc2)c1=O` came in with a melting point of 167 to 170 °C. Take `O=C(O)[C@H](Cc1ccccc1)Nc1c(NC(c2ccccc2)c2ccccc2)c(=O)c1=O`: the melting point lay in the range of 187 to 188 °C. Consider `CCCCCC1Cc2cc(OCC(=O)O)c(Cl)c(Cl)c2C1=O` (configuration not stated), for which the melting point fell in the range of 192 to 195 °C. `Cc1ccc(/C=C/C2=CCN(Cc3ccc(Cl)cc3)CC2)cc1` gave a melting point of 122 to 124 °C.

Take `COC(=O)c1ccc(C#Cc2ccc(OCC(O)CO)c(C34CC5CC(CC(C5)C3)C4)c2)cc1` (configuration not stated): the melting point lay within 202 to 203 °C. For `Cc1cc(C)cc(S(=O)c2cccc(F)c2C#N)c1` (configuration not stated), the melting point was in the range of 146 to 147 °C.

As to `CCc1cccc(C(O)CCc2ccccc2)c1NC(=O)CC1c2ccccc2Oc2ccccc21` (configuration not stated), the melting point fell in the range of 128 to 129 °C. `S=C=Nc1ccc(-c2nc(-c3cccs3)no2)cc1` registered a melting point of 161 to 162 °C. The value for `C#CCN(C(=O)CN)C(=O)OC` was 77 to 80 °C; that for `Cn1c([N+](=O)[O-])cnc1-c1nc2ccccc2[nH]1` was 257 °C. Turning to `COC(=O)c1ccc(N(C)C)cn1`, the melting point lay within 100 to 103 °C. In turn, `O=C(CN1C(=O)c2ccccc2C1=O)c1ncc(C(F)(F)F)cc1Cl` gave a melting point of 162 °C.

Take `CCNC(=S)NNC(=O)c1ccc(N)cc1`: the melting point lay within 113 to 115 °C. The value for `CCOC(=O)c1ccccc1NC(=O)NCC1(c2ccccc2)CCCCC1` was 99 to 101 °C; that for `NC(=O)CCN1CCC(C2c3ccccc3C=Cc3ccccc32)CC1` was 135 to 140 °C.

For the molecule `CN(C)/C=C(\C#N)c1cccc(Br)c1`, the melting point was in the range of 102 to 105 °C. For the molecule `COc1ccc(-c2[nH]nc3c2C(=O)c2c(NC(=O)Cc4ccccc4OC)cccc2-3)cc1`, the melting point turned out to be 255 °C. `Oc1ccc(N=Cc2ccccc2)cc1` displayed a melting point of 182 to 183 °C. Regarding `CC(C)(C)OC(=O)N1CCC(NCc2cccc(NC(=O)c3ccc(F)cc3Cl)n2)CC1`, the melting point worked out at 79.1 °C.

Molecule `O=C1OC(=Nc2ccc(Cl)cc2F)C2=C1CCCC2` yielded a melting point of 81 to 84 °C. Turning to `CC(NC(=O)CCCCCCCCC#CC#CCCCCCCCCC(=O)NC(C)c1ccccc1)c1ccccc1` (configuration not stated), the melting point lay in the range of 87.5 to 89 °C.

Molecule `O=S(=O)(c1cccc2cccnc12)N1CCN(CCc2ccc(F)cc2)CC1` had a melting point of 141 °C. For the molecule `CC(C)Cc1cc(OCC(=O)N(C)C)c2[nH]nc(Nc3nccs3)c2c1`, the melting point fell in the range of 96 to 98 °C. On to `Nc1nc2c(s1)CCN(CC=Cc1ccoc1)CC2`, for which the melting point was 130 to 136 °C. In turn, `O=C(Nc1nc(OCc2ccc(F)cc2)ncc1F)Oc1ccccc1` yielded a melting point of 129 to 131 °C.

Turning to `COC(=O)c1nn(Cc2ccccc2)c2c1CCc1cc(OCc3ccccc3)ccc1-2`, the melting point fell in the range of 168 to 169 °C. Regarding `CCOc1nc(NCc2ccc(C)o2)nc(Nc2ccc(O)cc2)n1`, the melting point fell in the range of 40 to 42 °C.
